Measurements from patent US9630956B2, “Compounds useful as inhibitors of ATR kinase” (Vertex Pharmaceuticals Incorporated, priority 2010, dated 2017).
pKi: −log10 of the molar value.

Tests used:
full-length ATR = full-length ATR (Homo sapiens (Human), UniProt Q13535); experiment: ATR Inhibition Assay (radioactive-phosphate incorporation); format: biochemical; settings: ATR Inhibition Ki(app); 10 μM ATP, 800 μM target peptide, 5 nM full-length ATR, 25° C.
In short: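 Full-length ATR at 5 nM was run in 50 mM Tris/HCl pH 7.5, 10 mM MgCl2 and 1 mM DTT with 10 μM [γ-33P]ATP and 800 μM peptide at 25° C, after a 10 min compound pre-incubation (top final 15 μM, 3-fold dilutions, 7% DMSO). Reactions were stopped at 24 h and counted after phosphocellulose capture. Ki(app) came from non-linear regression of initial rates.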

[1] = system: HCT116 colorectal cancer cells; experiment: Cisplatin Sensitization Assay (96h cell viability MTS); format: cell-based; settings: concentration of compound required to reduce the IC50 of Cisplatin alone by at least 3-fold, 96h MTS
Method: Compounds can be screened for their ability to sensitize HCT116 colorectal cancer cells to Cisplatin using a 96h cell viability (MTS) assay. […] Compounds and Cisplatin are then both added simultaneously to the cell media in 2-fold serial dilutions from a top final concentration of 10 μM as a full matrix of concentrations in a final cell volume of 200 μl, and the cells are then incubated at 37° C. in 5% CO2. After 96h, 40 μl of […] (Promega G358a) is added to each well and the cells are incubated for 1 h at 37° C. in 5% CO2.

full-length ATR, sequence (Q13535 whole entry): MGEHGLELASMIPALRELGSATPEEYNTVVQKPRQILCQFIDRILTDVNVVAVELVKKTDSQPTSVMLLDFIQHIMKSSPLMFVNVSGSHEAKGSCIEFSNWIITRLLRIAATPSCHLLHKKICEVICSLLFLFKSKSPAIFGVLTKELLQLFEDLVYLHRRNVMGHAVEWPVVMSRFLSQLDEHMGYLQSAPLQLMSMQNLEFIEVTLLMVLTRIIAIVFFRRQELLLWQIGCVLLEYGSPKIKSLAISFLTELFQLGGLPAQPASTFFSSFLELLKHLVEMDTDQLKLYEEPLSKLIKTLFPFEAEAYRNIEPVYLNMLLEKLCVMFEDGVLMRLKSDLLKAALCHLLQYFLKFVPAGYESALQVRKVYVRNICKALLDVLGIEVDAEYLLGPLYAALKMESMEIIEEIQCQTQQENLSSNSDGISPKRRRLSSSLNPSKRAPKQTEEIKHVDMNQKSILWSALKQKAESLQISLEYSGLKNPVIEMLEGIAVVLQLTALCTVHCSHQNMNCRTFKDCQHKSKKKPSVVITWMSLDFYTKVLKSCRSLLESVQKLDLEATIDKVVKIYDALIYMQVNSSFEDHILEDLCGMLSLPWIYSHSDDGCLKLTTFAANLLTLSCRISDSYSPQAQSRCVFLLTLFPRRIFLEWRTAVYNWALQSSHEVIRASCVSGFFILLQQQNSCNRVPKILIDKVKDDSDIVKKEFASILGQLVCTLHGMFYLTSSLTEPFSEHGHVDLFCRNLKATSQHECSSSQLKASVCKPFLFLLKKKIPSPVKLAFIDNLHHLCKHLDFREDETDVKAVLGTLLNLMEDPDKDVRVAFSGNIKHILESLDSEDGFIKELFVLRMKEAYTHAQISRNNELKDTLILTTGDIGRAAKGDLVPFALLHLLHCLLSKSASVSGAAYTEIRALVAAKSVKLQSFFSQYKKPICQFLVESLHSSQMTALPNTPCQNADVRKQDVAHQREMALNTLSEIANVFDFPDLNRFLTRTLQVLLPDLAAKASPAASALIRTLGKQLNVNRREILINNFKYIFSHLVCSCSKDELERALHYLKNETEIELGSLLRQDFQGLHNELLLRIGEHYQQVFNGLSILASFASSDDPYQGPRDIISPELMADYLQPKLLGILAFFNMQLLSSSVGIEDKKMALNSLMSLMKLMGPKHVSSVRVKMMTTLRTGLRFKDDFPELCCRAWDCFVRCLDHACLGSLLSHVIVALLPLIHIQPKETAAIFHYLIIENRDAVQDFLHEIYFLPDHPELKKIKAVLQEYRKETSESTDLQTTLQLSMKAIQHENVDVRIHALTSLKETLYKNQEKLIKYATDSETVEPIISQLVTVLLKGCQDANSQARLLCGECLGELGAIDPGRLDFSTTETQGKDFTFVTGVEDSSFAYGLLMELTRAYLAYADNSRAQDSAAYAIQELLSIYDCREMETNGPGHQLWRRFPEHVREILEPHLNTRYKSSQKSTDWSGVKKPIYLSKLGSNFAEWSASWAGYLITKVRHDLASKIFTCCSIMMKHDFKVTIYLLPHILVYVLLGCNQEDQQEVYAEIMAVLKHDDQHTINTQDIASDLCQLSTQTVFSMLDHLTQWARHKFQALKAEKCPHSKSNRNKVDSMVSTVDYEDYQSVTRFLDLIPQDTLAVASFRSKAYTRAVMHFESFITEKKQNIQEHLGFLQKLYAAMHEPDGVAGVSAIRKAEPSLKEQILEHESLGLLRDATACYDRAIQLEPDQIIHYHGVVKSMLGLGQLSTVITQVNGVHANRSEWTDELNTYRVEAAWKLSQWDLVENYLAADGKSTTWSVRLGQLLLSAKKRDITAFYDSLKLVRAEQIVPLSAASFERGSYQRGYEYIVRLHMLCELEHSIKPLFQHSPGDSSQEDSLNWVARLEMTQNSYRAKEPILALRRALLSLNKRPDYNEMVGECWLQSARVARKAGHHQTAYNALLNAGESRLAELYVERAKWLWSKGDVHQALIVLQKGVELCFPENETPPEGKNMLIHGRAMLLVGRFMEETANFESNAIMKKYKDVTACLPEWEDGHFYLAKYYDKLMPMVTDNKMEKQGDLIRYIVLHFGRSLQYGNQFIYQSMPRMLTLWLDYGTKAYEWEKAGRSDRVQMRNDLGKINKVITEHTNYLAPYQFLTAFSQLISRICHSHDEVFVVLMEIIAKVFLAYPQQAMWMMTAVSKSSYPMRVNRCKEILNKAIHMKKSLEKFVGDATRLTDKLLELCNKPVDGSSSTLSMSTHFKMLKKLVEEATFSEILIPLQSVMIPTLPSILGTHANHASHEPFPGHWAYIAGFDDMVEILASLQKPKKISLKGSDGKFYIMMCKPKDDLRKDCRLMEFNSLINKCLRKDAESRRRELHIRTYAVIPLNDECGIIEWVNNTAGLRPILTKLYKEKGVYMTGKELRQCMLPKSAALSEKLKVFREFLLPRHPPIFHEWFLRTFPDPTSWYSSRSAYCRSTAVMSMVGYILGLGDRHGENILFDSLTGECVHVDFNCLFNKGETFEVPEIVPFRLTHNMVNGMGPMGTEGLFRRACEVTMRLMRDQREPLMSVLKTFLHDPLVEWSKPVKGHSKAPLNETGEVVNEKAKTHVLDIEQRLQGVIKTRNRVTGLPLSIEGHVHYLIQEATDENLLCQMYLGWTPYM

| pKi (full-length ATR) | SMILES | CP3 shift [1] |
| --- | --- | --- |
| ≥ 8.30 | CCC(CC)n1cc(-c2cnc(N)c(-c3cc(-c4ccc(CNC5CC(F)(F)C5)cc4)no3)n2)ccc1=O [Compound I-127] | 0.312 µM |
| ≥ 8.30 | CCC(CC)n1cc(-c2cnc(N)c(-c3cc(-c4ccc(CNC5CC5)cc4F)no3)n2)ccc1=O [Compound I-128] | 0.078 µM |
| ≥ 8.30 | CCC(CC)n1cc(-c2cnc(N)c(-c3cc(-c4ccc(CNC)cc4F)no3)n2)ccc1=O [Compound I-129] | 0.02 µM |
| ≥ 8.30 | CCC(CC)n1cc(-c2cnc(N)c(-c3cc(-c4ccc(CN[C@@H]5CCC(F)C5)cc4)no3)n2)ccc1=O (stereo partly drawn) [Compound I-130] | 0.078 µM |
| ≥ 8.30 | CCC(CC)c1cc(-c2cnc(N)c(-c3cc(-c4ccc(CNC)cc4F)no3)n2)c[nH]c1=O [Compound I-132] | 0.01 µM |
| ≥ 8.30 | CCC(N)c1cccc(-c2cc(-c3nc(-c4ccc(=O)n(C(CC)CC)c4)cnc3N)on2)c1 (stereo not drawn) [Compound I-133] | 0.039 µM |
| ≥ 8.30 | CCC(C#N)(CC)n1cc(-c2cnc(N)c(-c3cc(-c4ccc(CNC)cc4)no3)n2)ccc1=O [Compound I-134] | 0.02 µM |
| ≥ 8.30 | CCC(C#N)(CC)n1cc(-c2cnc(N)c(-c3cc(-c4cccc([C@@H](C)N)c4)no3)n2)ccc1=O [Compound I-138] | 0.01 µM |
| ≥ 8.30 | CCC(CC)n1cc(-c2cnc(N)c(-c3cc(-c4ccc(CNC5(C)CC5)cc4)no3)n2)ccc1=O [Compound I-140] | 0.156 µM |
| ≥ 8.30 | CNCc1ccc(-c2cc(-c3nc(-c4ccc(=O)n(C5(C#N)CCCC5)c4)cnc3N)on2)cc1 [Compound I-143] | 0.01 µM |
| ≥ 8.30 | CC(C)(C#N)n1cc(-c2cnc(N)c(-c3cc(-c4ccc(CNC5CCOC5)cc4)no3)n2)ccc1=O (stereo not drawn) [Compound I-145] | 0.01 µM |

| SMILES | pKi (full-length ATR) | CP3 shift [1] |
| --- | --- | --- |
| CCC(CC)n1cc(-c2cnc(N)c(-c3cc(-c4cccc(C(N)CF)c4)no3)n2)ccc1=O (stereo not drawn) [Compound I-131] | ≥ 8.30 | 0.02 µM |
